Here are results for eleven molecules from paper PMC6010123, “Synthesis of chiral pyrazolo[4,3-e][1,2,4]triazine sulfonamides with tyrosinase and urease inhibitory activity” (Journal of Enzyme Inhibition and Medicinal Chemistry, 2016).

Molecules are shown by their SMILES. Read-outs that look alike come from different tables or passages of the source.

The target in one test is T1, Jack bean urease (Canavalia ensiformis, UniProt P07374).
T1 construct: purchased Sigma (St. Louis, MO, USA)
The test can be described thus: Kinetic study of urease inhibition (Lineweaver-Burk, secondary replot, Dixon plot). Type of test: biochemical. The method, then: Urease inhibition was measured by varying the concentration of urea in the presence of different concentrations (0, 0.125, 0.25 and 0.5 μM) of compound 8a. Inhibitory constant (Ki) was determined as the intersection on the X-axis of the secondary replot of 1/V (y-intercept of Lineweaver–Burk plot) versus inhibitor concentrations and by Dixon plot of inverse of velocities (1/V) versus inhibitor concentrations. Briefly the urea concentration was changed from 3.12 to 100 mM for urease kinetics studies and remaining procedure was same as describes in urease inhibition assay protocol. Urease activity was determined by measuring ammonia production using the indophenol method as reported previously. The results (change in absorbance per min) were processed by using SoftMaxPro software(Molecular Devices Corporation Sunnyvale, CA) and a Dixon plot was constructed by plotting (1/V) versus inhibitor concentration [I].

Test [1] concerns the target T2, Jack bean urease (EC 3.5.1.5) (Canavalia ensiformis, UniProt P07374).
T2 construct: purchased Sigma (St. Louis, MO, USA)
The test can be described thus: biochemical.

In the next test the target is mushroom tyrosinase (Agaricus bisporus, UniProt C7FF04). The test can be described thus: Kinetic study of mushroom tyrosinase inhibition (Lineweaver-Burk, secondary replot, Dixon plot). Type of test: biochemical. Conditions: substrate L-DOPA. The method, then: Lineweaver–Burk plots of 1/absorbance versus 1/L-DOPA and 1/absorbance versus 1/Urea were used to determine the type of enzyme inhibition. A series of experiments were performed to determine the inhibition kinetics by following method[18] ^, [28] ^, [29]. Different inhibitor concentrations of compound 8b with 0, 15, 30, 61, 123 and 247 μM, 8j with 0, 14, 28 and 55.8 μM, respectively were used in case of mushroom tyrosinase inhibition. Substrate L-DOPA concentration was between 0.062 and 2 mM in all tyrosinase kinetic study. Pre-incubation and measurement time was the same as discussed in mushroom tyrosinase inhibition assay protocol. Maximal initial velocity was determined from initial linear portion of absorbance up to five minutes after addition of enzyme at a 30 s interval. The inhibition type on the enzyme was assayed by Lineweaver–Burk plots of inverse of velocities (1/V) versus inverse of substrate concentration 1/[S] mM ^− ^1, and the inhibition constant Ki was determined by two methods, by secondary replot of 1/V (y-intercept of Lineweaver–Burk plot) versus inhibitor concentrations and by Dixon plot of inverse of velocities (1/V) versus inhibitor concentrations.
Chain of mushroom tyrosinase (C7FF04 2-392): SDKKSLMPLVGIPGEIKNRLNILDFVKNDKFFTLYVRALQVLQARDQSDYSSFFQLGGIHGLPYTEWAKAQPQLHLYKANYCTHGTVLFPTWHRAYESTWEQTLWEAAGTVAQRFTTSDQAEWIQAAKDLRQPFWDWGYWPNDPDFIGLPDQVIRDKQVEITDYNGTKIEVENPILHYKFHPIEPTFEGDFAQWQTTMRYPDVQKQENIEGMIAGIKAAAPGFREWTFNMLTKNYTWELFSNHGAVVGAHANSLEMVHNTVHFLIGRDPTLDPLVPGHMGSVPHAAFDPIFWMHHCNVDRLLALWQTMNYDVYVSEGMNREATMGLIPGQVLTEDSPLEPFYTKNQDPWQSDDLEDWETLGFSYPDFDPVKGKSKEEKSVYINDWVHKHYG

T2 sequence (P07374 whole entry, looked up): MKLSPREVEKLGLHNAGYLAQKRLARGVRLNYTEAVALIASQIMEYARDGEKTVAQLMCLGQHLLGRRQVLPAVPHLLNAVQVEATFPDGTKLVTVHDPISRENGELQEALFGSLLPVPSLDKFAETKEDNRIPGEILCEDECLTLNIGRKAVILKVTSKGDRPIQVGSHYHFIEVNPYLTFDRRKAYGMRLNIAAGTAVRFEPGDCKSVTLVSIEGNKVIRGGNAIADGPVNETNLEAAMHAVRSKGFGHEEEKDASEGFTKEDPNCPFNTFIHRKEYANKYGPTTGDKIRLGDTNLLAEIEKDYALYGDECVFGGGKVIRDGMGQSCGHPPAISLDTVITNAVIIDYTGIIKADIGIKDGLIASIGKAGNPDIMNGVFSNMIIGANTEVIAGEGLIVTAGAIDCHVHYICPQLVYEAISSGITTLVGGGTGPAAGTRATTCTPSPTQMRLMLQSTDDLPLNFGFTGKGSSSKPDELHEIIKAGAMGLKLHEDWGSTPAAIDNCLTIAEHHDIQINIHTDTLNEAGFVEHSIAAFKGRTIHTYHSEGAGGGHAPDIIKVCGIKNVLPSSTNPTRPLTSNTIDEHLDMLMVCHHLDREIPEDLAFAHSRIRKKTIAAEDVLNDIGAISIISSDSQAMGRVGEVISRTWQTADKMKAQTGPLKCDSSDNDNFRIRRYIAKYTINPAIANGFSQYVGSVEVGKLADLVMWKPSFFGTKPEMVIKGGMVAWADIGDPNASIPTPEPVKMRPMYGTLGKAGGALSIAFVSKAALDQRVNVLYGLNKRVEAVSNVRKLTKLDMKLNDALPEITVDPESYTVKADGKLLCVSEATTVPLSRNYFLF
T1 sequence (P07374 whole entry, looked up): as above

For orientation: Ki means the dissociation constant of the complex between target and ligand, obtained from inhibition or displacement. High values mean weaker binding, low ones tighter binding. In general, IC50 refers to the concentration at which inhibition is half-maximal. In the case of `CCOc1ccc(S(=O)(=O)N[C@@H](C)CO)cc1-c1nnc2c(n1)c(C)nn2C` [8a, (S)-3-(1,3-dimethyl-1H-pyrazolo[4,3-e][1,2,4]triazin-5-yl)-4-ethoxy-N-(1-hydroxy-propan-2-yl)benzenesulfonamide], on Jack bean urease, the Ki worked out at 10 nM. The “Urease type of inhibition” value on Jack bean urease (Lineweaver-Burk plot, substrate urea) is “Mixed type”. This molecule had an IC50 in test [1] of 37 ± 3 nM.
On to `CCOc1ccc(S(=O)(=O)NC[C@H](C)O)cc1-c1nnc2c(n1)c(C)nn2C` [8e, (S)-3-(1,3-dimethyl-1H-pyrazolo[4,3-e][1,2,4]triazin-5-yl)-4-ethoxy-N-(2-hydroxy-propyl)-benzenesulfonamide], for which the IC50 in test [1] came to 76 ± 7 nM.
Turning to `CCOc1ccc(S(=O)(=O)N[C@H](C)CO)cc1-c1nnc2c(n1)c(C)nn2C` [8b, (R)-3-(1,3-dimethyl-1H-pyrazolo[4,3-e][1,2,4]triazin-5-yl)-4-ethoxy-N-(1-hydroxy-propan-2-yl)benzenesulfonamide], the “Mushroom tyrosinase type of inhibition” value at mushroom tyrosinase is on record as “Noncompetitive”. Moreover, the IC50 in test [1] amounted to 84 ± 20 nM.
For the molecule `NC(N)=S` [Thio-Urea, thiourea, reference compound], the IC50 in test [1] (Jack bean urease, 100 mM urea, pH 8.2, 37 °C, read-out: Urease IC50) came to 20700 ± 450 nM.
In turn, `CCOc1ccc(S(=O)(=O)N[C@H](CO)C(C)C)cc1-c1nnc2c(n1)c(C)nn2C` [8c, (S)-3-(1,3-dimethyl-1H-pyrazolo[4,3-e][1,2,4]triazin-5-yl)-4-ethoxy-N-(1-hydroxy-3-methylbutan-2-yl)benzenesulfonamide] registered an IC50 in test [1] of 78 ± 20 nM.
Take `CCOc1ccc(S(=O)(=O)N[C@@H](CO)CC(C)C)cc1-c1nnc2c(n1)c(C)nn2C` [8j, (R)-3-(1,3-dimethyl-1H-pyrazolo[4,3-e][1,2,4]triazin-5-yl)-4-ethoxy-N-(1-hydroxy-4-methylpentan-2-yl)benzenesulfonamide]: the “Mushroom tyrosinase type of inhibition” value on mushroom tyrosinase is “Mixed type”. In addition, the midpoint of inhibition in test [1], the IC50, lay at 80 ± 15 nM.
In the case of `CCOc1ccc(S(=O)(=O)N[C@H](CO)CC(C)C)cc1-c1nnc2c(n1)c(C)nn2C` [8i, (S)-3-(1,3-dimethyl-1H-pyrazolo[4,3-e][1,2,4]triazin-5-yl)-4-ethoxy-N-(1-hydroxy-4-methylpentan-2-yl)benzenesulfonamide], in test [1], the IC50 was 42 ± 12 nM.
On the same count and under the same terms, the figure for `CCOc1ccc(S(=O)(=O)N[C@@H](CO)C(C)C)cc1-c1nnc2c(n1)c(C)nn2C` [8d, (R)-3-(1,3-dimethyl-1H-pyrazolo[4,3-e][1,2,4]triazin-5-yl)-4-ethoxy-N-(1-hydroxy-3-methylbutan-2-yl)benzenesulfonamide] is 64 ± 20 nM; for `CCOc1ccc(S(=O)(=O)NC[C@H](O)CO)cc1-c1nnc2c(n1)c(C)nn2C` [8g, (S)-N-(2,3-dihydroxypropyl)-3-(1,3-dimethyl-1H-pyrazolo[4,3-e][1,2,4]triazin-5-yl)-4-ethoxybenzenesulfonamide] it is 63 ± 16 nM.
Regarding `CCOc1ccc(S(=O)(=O)NC[C@@H](C)O)cc1-c1nnc2c(n1)c(C)nn2C` [8f, (R)-3-(1,3-dimethyl-1H-pyrazolo[4,3-e][1,2,4]triazin-5-yl)-4-ethoxy-N-(2-hydroxy-propyl)-benzenesulfonamide], the IC50 in test [1] (read-out: Urease IC50, Jack bean urease, 100 mM urea, pH 8.2, 37 °C) is 44 ± 130 nM.
In test [1], `CCOc1ccc(S(=O)(=O)NC[C@@H](O)CO)cc1-c1nnc2c(n1)c(C)nn2C` [8h, (R)-N-(2,3-dihydroxypropyl)-3-(1,3-dimethyl-1H-pyrazolo[4,3-e][1,2,4]triazin-5-yl)-4-ethoxybenzenesulfonamide] gave an IC50 of 80 ± 14 nM.
